Test results as given in patent publication US20060116390A1, “Hepatitis c virus inhibitors” (priority 2003, published 2006).
Read-outs that look alike come from different tables or passages of the source.

Test system: HCV proteins in Rep5.1 cells (replicon cell line)
Experiment: Inhibitory activity of HCV: cell-based ELISA in replicon cell line Rep5.1 (decrease of HCV proteins)
Parameters: species or system hepatitis C virus
Conditions: Rep5.1 cells, 72 hours with drug
Method in brief: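 HCV protein loss was quantified by ELISA on methanol/acetone-fixed cells 72 h after drug addition, probing with selected HCV-positive human plasma, and IC50 was defined as 50% reduction relative to untreated wells. The cells were Rep5.1 replicon cells cultured in DMEM-10 with 500 μg/ml G418, plated at 5000 per well and dosed with serial dilutions after 4 h attachment.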

[1] = Hepatitis C virus, 72 h, concentration at which 50% of HCV proteins was decreased, Table 2, read-out: IC50
[2] = Hepatitis C virus, 72 h, decrease of HCV proteins measured by HCV antibody, Table 1, read-out: Level (IC50 values classified)

| SMILES | IC50 [1] [nM] | IC50 [2] [nM] | IC50 (concentration at which 50% of HCV proteins was decreased, Table 2, read-out: IC50) [nM] |
| --- | --- | --- | --- |
| CC1=C(C(=O)OCCc2ccsc2F)CNC(=S)N1 [Compound 249, 6-methyl-2-thioxo-1,2,3,4-tetrahydro-pyrimidine-5-carboxylic acid 2-(2-fluoro-thiophen-3-yl)-ethyl ester] | < 400 | < 1000 | – |
| CCc1ccc(CCOC(=O)C2=C(C)NC(=S)NC2)s1 [Compound 266, 6-methyl-2-thioxo-1,2,3,4-tetrahydro-pyrimidine-5-carboxylic acid 2-(5-ethyl-thiophen-2-yl)-ethyl ester] | 600 | < 1000 | – |
| CC1=C(C(=O)OCc2ccc([S+](C)[O-])cc2)CNC(=S)N1 (stereo not shown) [Compound 52, 6-methyl-2-thioxo-1,2,3,4-tetrahydro-pyrimidine-5-carboxylic acid 4-methylsulfinyl-benzyl ester] | 700 | < 1000 | – |
| CC1=C(C(=O)OCCc2ccccc2)CNC(=S)N1 [Compound 34, 6-methyl-2-thioxo-1,2,3,4-tetrahydro-pyrimidine-5-carboxylic acid phenethyl ester] | 2000 | 1000 to 10000 | – |
| CC(=O)OCC1NC(=S)NC(C)=C1C(=O)OCCCc1ccsc1 (stereo not shown) [22″, 4-acetoxymethyl-6-methyl-2-thioxo-1,2,3,4-tetrahydro-pyrimidine-5-carboxylic acid 3-thiophen-3-yl-propyl ester] | 43000 | > 20000 | – |
| CCOC(=O)CCCCCOC(=O)C1=C(C)NC(=S)NC1 [Compound 197, 6-methyl-2-thioxo-1,2,3,4-tetrahydro-pyrimidine-5-carboxylic acid 5-ethoxycarbonyl-pentyl ester] | > 100000 | > 20000 | – |
| CC1=C(C(=O)OCc2cccc(C)c2C)CNC(=S)N1 [Compound 156, 6-methyl-2-thioxo-1,2,3,4-tetrahydro-pyrimidine-5-carboxylic acid 2,3-dimethyl-benzyl ester] | 500 | < 1000 | – |
| CC1=C(C(=O)OC(C)CCc2ccccc2)CNC(=S)N1 (stereo not shown) [Compound 42, 6-methyl-2-thioxo-1,2,3,4-tetrahydro-pyrimidine-5-carboxylic acid 1-methyl-3-phenyl-propyl ester] | 500 | < 1000 | – |
| CCCN(CC)c1ccc(CCOC(=O)C2=C(C)NC(=S)NC2CO)cc1[N+](=O)[O-] (stereo not shown) [92″, 4-Hydroxymethyl-6-methyl-2-thioxo-1,2,3,4-tetrahydro-pyrimidine-5-carboxylic acid 2-[4-(ethyl-propylamino)-3-nitro-phenyl]-ethyl ester] | 400 | < 1000 | – |
| CC1=C(C(=O)OCCc2ccc(N(C)C)cc2)C(CO)NC(=S)N1 (stereo not shown) [12″, 4-hydroxymethyl-6-methyl-2-thioxo-1,2,3,4-tetrahydro-pyrimidine-5-carboxylic acid 2-(4-dimethylamino-phenyl)-ethyl ester] | 31000 | > 20000 | – |
| CCOc1ccccc1CCOC(=O)C1=C(C)NC(=S)NC1CS(=O)(=O)C(C)(C)C (stereo not shown) [30″, 6-methyl-4-(2-methyl-propane-2-sulfonylmethyl)-2-thioxo-1,2,3,4-tetrahydro-pyrimidine-5-carboxylic acid 2-(2-ethoxy-phenyl)-ethyl ester] | 50000 | > 20000 | – |
| CC1=C(C(=O)OCc2ccc(F)cc2Cl)C(CF)NC(=S)N1 (stereo not shown) [79′, 4-fluoromethyl-6-methyl-2-thioxo-1,2,3,4-tetrahydro-pyrimidine-5-carboxylic acid 2-chloro-4-fluoro-benzyl ester] | 1000 | < 1000 | – |
| O=C(O)CCCC1=C(C(=O)OCc2ccccc2)CNC(=S)N1 [Compound 170, 6-(3-carboxy-propyl)-2-thioxo-1,2,3,4-tetrahydro-pyrimidine-5-carboxylic acid benzyl ester] | 90000 | > 20000 | – |
| CC1=C(C(=O)OCc2ccc(SC(F)(F)F)cc2)CNC(=S)N1 [Compound 199, 6-methyl-2-thioxo-1,2,3,4-tetrahydro-pyrimidine-5-carboxylic acid 4-trifluoromethylsulfanyl-benzyl ester] | < 400 | < 1000 | – |
| CC1=C(C(=O)OCCc2cc(C)cc(C)c2)CNC(=S)N1 [Compound 175, 6-methyl-2-thioxo-1,2,3,4-tetrahydro-pyrimidine-5-carboxylic acid 2-(3,5-dimethylphenyl)-ethyl ester] | < 400 | < 1000 | – |
| CC1=C(C(=O)OCc2ccc3nnn(C)c3c2)CNC(=S)N1 [Compound 242, 6-methyl-2-thioxo-1,2,3,4-tetrahydro-pyrimidine-5-carboxylic acid 3-methyl-3H-benzotriazol-5-ylmethyl ester] | 63000 | > 20000 | – |
| CC1=C(C(=O)OCc2cccc(I)c2)CNC(=S)N1 [Compound 75, 6-methyl-2-thioxo-1,2,3,4-tetrahydro-pyrimidine-5-carboxylic acid 3-iodo-benzyl ester] | < 500 | < 1000 | – |

| SMILES | IC50 [1] [nM] | IC50 [2] [nM] | IC50 (concentration at which 50% of HCV proteins was decreased, Table 2, read-out: IC50) [nM] |
| --- | --- | --- | --- |
| CCOc1ccccc1COC(=O)C1=C(C)NC(=S)NC1CF (stereo not shown) [Compound 263, 4-fluoromethyl-6-methyl-2-thioxo-1,2,3,4-tetrahydro-pyrimidine-5-carboxylic acid 2-ethoxy-benzyl ester] | 1700 | < 1000 | – |
| COc1c(C)cc(COC(=O)C2=C(C)NC(=S)NC2)cc1C [Compound 180, 6-methyl-2-thioxo-1,2,3,4-tetrahydro-pyrimidine-5-carboxylic acid 4-methoxy-3,5-dimethyl-benzyl ester] | 800 | < 1000 | – |
| CC1=C(C(=O)OCn2nnc3ccccc32)CNC(=S)N1 [Compound 225, 6-methyl-2-thioxo-1,2,3,4-tetrahydro-pyrimidine-5-carboxylic acid benzotriazol-1-ylmethyl ester] | > 100000 | > 20000 | – |
| CC1=C(C(=O)OCc2cccc(F)c2)CNC(=S)N1 [Compound 83, 6-methyl-2-thioxo-1,2,3,4-tetrahydro-pyrimidine-5-carboxylic acid 3-fluoro-benzyl ester] | 1000 | < 1000 | – |
| CC1=C(C(=O)OCc2cccc(Cl)c2)CNC(=S)N1 [Compound 91, 6-methyl-2-thioxo-1,2,3,4-tetrahydro-pyrimidine-5-carboxylic acid 3-chloro-benzyl ester] | < 400 | < 1000 | – |
| CC1=C(C(=O)OCc2cc(Cl)cc(Cl)c2)C(COS(C)(=O)=O)NC(=S)N1 (stereo not shown) [50″, 4-methanesulfonyloxymethyl-6-methyl-2-thioxo-1,2,3,4-tetrahydro-pyrimidine-5-carboxylic acid 3,5-dichloro-benzyl ester] | 68000 | > 20000 | – |
| CC1=C(C(=O)OCc2ccc(C(F)(F)F)cc2)CNC(=S)N1 [Compound 114, 6-methyl-2-thioxo-1,2,3,4-tetrahydro-pyrimidine-5-carboxylic acid 4-trifluoromethyl-benzyl ester] | < 400 | < 1000 | – |
| CC1=C(C(=O)OCC2(c3ccc(Cl)cc3Cl)CC2)C(CO)NC(=S)N1 (stereo not shown) [61″, 4-hydroxymethyl-6-methyl-2-thioxo-1,2,3,4-tetrahydro-pyrimidine-5-carboxylic acid 1-(2,4-dichloro-phenyl)-cyclopropylmethyl ester] | 16000 | 10000 to 20000 | – |
| COc1ccc(COC(=O)C2=C(C)NC(=S)NC2)cc1OC [Compound 40, 6-methyl-2-thioxo-1,2,3,4-tetrahydro-pyrimidine-5-carboxylic acid 3,4-dimethoxy-benzyl ester] | 92000 | > 20000 | – |
| CC1=C(C(=O)OCCCc2cccs2)C(CF)NC(=S)N1 (stereo not shown) [10′, 4-fluoromethyl-6-methyl-2-thioxo-1,2,3,4-tetrahydro-pyrimidine-5-carboxylic acid 3-thiophen-2-yl-propyl ester] | 1200 | 1000 to 10000 | – |
| CC1=C(C(=O)OCc2cccc([N+](=O)[O-])c2)CNC(=S)N1 [Compound 77, 6-methyl-2-thioxo-1,2,3,4-tetrahydro-pyrimidine-5-carboxylic acid 3-nitro-benzyl ester] | 2300 | 1000 to 10000 | – |
| COCC1NC(=S)NC(C)=C1C(=O)OCc1ccccc1 (stereo not shown) [Compound 109, 4-methoxymethyl-6-methyl-2-thioxo-1,2,3,4-tetrahydro-pyrimidine-5-carboxylic acid benzyl ester] | 100000 | > 20000 | – |
| CC1=C(C(=O)OCCc2cccc([N+](=O)[O-])c2)C(CO)NC(=S)N1 (stereo not shown) [32″, 4-hydroxymethyl-6-methyl-2-thioxo-1,2,3,4-tetrahydro-pyrimidine-5-carboxylic acid 2-(3-nitro-phenyl)-ethyl ester] | 6000 | 1000 to 10000 | – |
| CC1=C(C(=O)OCc2ccccc2)C(C(F)(F)F)NC(=S)N1 (stereo not shown) [Compound 234, 6-methyl-2-thioxo-4-trifluoromethyl-1,2,3,4-tetrahydro-pyrimidine-5-carboxylic acid benzyl ester] | 100000 | > 20000 | – |
| CC1=C(C(=O)OCC=Cc2ccsc2)CNC(=S)N1 [Compound 244, 6-methyl-2-thioxo-1,2,3,4-tetrahydro-pyrimidine-5-carboxylic acid 3-thiophen-3-yl-allyl ester] | 500 | < 1000 | – |
| C#CCOC(=O)C1=C(C)NC(=S)NC1 [Compound 159, 6-methyl-2-thioxo-1,2,3,4-tetrahydro-pyrimidine-5-carboxylic acid prop-2-inyl ester] | – | – | > 100000 |
| CC1=C(C(=O)OCCc2ccsc2Br)C(CF)NC(=S)N1 (stereo not shown) [Compound 268, 4-fluoromethyl-6-methyl-2-thioxo-1,2,3,4-tetrahydro-pyrimidine-5-carboxylic acid 2-(2-bromo-thiophen-3-yl)-ethyl ester] | 1000 | 1000 to 10000 | – |
